Literature values as cited in patent publication US20230321062A1, “COMBINATION THERAPIES” (Mirati Therapeutics, Inc., priority 2020, published 2023).
Read-outs that look alike come from different tables or passages of the source. Square brackets hold non-standard residues; d marks the D form. Peptide text beside a SMILES is read from it. * marks the point of attachment. Dolaproine = CO[C@@H]([C@@H]1CCCN1)[C@@H](C)C(=O)O; Dil = CC[C@H](C)[C@H](NC)[C@@H](CC(=O)O)OC; X1 = C[C@@H](N*)[C@@H](O)c1ccccc1; NMeV = CN[C@H](C(=O)O)C(C)C

Tests used:
Nectin-4 = target: T1, Nectin-4 (Homo sapiens, UniProt Q96NY8); conditions: cited from earlier work
T1 construct: host or cells: cells that express Nectin-4
T1 sequence (Q96NY8 32-510): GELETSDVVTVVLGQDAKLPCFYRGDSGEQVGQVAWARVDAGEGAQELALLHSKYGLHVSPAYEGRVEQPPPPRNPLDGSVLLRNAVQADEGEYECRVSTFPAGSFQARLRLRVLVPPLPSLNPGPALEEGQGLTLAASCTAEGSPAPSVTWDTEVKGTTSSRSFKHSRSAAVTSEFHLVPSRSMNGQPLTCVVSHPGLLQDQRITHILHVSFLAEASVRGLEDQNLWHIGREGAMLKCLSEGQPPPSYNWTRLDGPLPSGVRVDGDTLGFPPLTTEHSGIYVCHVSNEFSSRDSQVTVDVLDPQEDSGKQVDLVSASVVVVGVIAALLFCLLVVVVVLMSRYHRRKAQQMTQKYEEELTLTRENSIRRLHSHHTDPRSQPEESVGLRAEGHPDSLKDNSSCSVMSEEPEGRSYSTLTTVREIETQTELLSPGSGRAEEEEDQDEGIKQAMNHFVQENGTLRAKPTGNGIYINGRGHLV

[1] = cited from earlier work; for steady-state concentrations reached after: 1.25 mg/kg Q3W regimen; for exposure (AUC) in mild, moderate or severe renal impairment compared to normal renal function: 1.25 mg/kg enfortumab; for elimination half-life / mean clearance (CL): after enfortumab dosing; for mean clearance (CL): patients
Urothelial Carcinoma [2] = conditions: EV-201; cited from earlier work
Urothelial Carcinoma [3] = conditions: cited from earlier work
[4] = cited from earlier work
Urothelial Carcinoma [5] = conditions: cited from earlier work; remark: listed apart in the source
Urothelial Carcinoma [6] = conditions: cited from earlier work; remark: listed apart in the source
[7] = KEYNOTE-052, overall population
[8] = KEYNOTE-052, patients with CPS ≥10

Question: With “enfortumab: Nectin-4 directed ADC: fully human anti-Nectin-4 IgG1 kappa antibody (AGS-22C3) conjugated to MMAE via protease-cleavable maleimidocaproyl valine-citrulline linker” as the compound, how does the “affinity of binding to cells that express Nectin-4” value (Nectin-4) read?
Answer: high affinity

Question: And the “steady-state concentrations reached after” value [1]?
Answer: 1 treatment cycle

Question: And the “exposure (AUC) in mild, moderate or severe renal impairment compared to normal renal function” value [1]?
Answer: No significant differences

Question: What about the “dose proportionality of PK” value ([1]; 0.5 to 1.25 mg/kg, days 1, 8, 15 of 28-day cycle) of the same compound?
Answer: linear dose-proportional PK

Question: What about the elimination half-life [1] of the same compound?
Answer: 81.6 h

Question: What about the “estimated mean volume of distribution at steady state (Vss)” value ([1]; following administration of enfortumab) of the same compound?
Answer: 11 L

Question: And the “accumulation following repeat administration of enfortumab” value ([1]; in vivo)?
Answer: minimal accumulation

Question: And the “time of peak concentrations” value ([1]; intravenous infusion)?
Answer: end of infusion

Question: What about the “mean clearance (CL)” value [1] of the same compound?
Answer: 0.10 L/h

Question: What about the “differences in pharmacokinetics based on age, sex, or race/ethnicity” value ([1]; population PK) of the same compound?
Answer: no clinically significant differences

Question: And the complete response rate (Urothelial Carcinoma [2])?
Answer: 12%

Question: What about the “median DOR” value (Urothelial Carcinoma [2]) of the same compound?
Answer: 7.6 months

Question: What about the median overall survival (Urothelial Carcinoma [2]) of the same compound?
Answer: 11.7 months

Question: What about the “overall ORR as confirmed by central review” value (“overall ORR as confirmed” for short) (Urothelial Carcinoma [2]) of the same compound?
Answer: 44%

Question: What about the “overall ORR as confirmed” value (Urothelial Carcinoma [3]; EV-103 (pembrolizumab and enfortumab used in combination)) of the same compound?
Answer: 73%

Question: And the “median DOR” value (Urothelial Carcinoma [3]; EV-103, median follow-up 10.4 months)?
Answer: not reached

Question: And the “12-month overall survival rate” value (Urothelial Carcinoma [3]; EV-103)?
Answer: 82%

Question: And the complete response rate (Urothelial Carcinoma [3]; EV-103)?
Answer: 16%

Question: What about the median overall survival (Urothelial Carcinoma [3]; EV-103) of the same compound?
Answer: not reached

Question: With “pembrolizumab: humanized monoclonal IgG4 kappa antibody that blocks the interaction between PD-1 and its ligands, PD-L1 and PD-L2” as the compound, how does the “steady-state exposure versus dose” value ([4]; 2 to 10 mg/kg Q3W) read?
Answer: increased dose proportionally

Question: And the systemic accumulation ([4]; Q3W regimen)?
Answer: approximately 2.1 fold

Question: And the “geometric mean clearance (CL)” value ([4]; population PK, 2993 patients with various cancers)?
Answer: 195 mL/day

Question: And the “geometric mean volume of distribution at steady state (Vss)” value ([4]; population PK)?
Answer: 6.0 L

Question: And the “median DOR” value (Urothelial Carcinoma [5]; [7])?
Answer: 30.1 months

Question: And the “overall ORR as confirmed” value (Urothelial Carcinoma [5]; [7])?
Answer: 29%

Question: What about the median overall survival (Urothelial Carcinoma [5]; KEYNOTE-052, overall) of the same compound?
Answer: 11.3 months

Question: And the “ORR as confirmed by central review” value (Urothelial Carcinoma [5]; [8])?
Answer: 47%

Question: And the “median DOR” value (Urothelial Carcinoma [5]; [8])?
Answer: not reached

Question: And the median overall survival (Urothelial Carcinoma [5]; [8])?
Answer: 18.5 months

Question: And the “OS versus chemotherapy in subgroups” value (Urothelial Carcinoma [6]; KEYNOTE-045, all subgroups examined)?
Answer: OS benefit over chemotherapy

Question: What about the “ORR as confirmed by central review” value (Urothelial Carcinoma [6]; KEYNOTE-045, patients with CPS≥10) of the same compound?
Answer: 20%

Question: What about the “overall ORR as confirmed” value (Urothelial Carcinoma [6]; KEYNOTE-045, pembrolizumab group) of the same compound?
Answer: 21%

Question: What about the “median DOR” value (Urothelial Carcinoma [6]; KEYNOTE-045) of the same compound?
Answer: not reached

Question: And the median overall survival (Urothelial Carcinoma [6]; KEYNOTE-045)?
Answer: 10.1 months

Question: For `CC[C@H](C)[C@@H]([C@@H](CC(=O)N1CCC[C@H]1[C@H](OC)[C@@H](C)C(=O)N[C@H](C)[C@@H](O)c1ccccc1)OC)N(C)C(=O)[C@@H](NC(=O)[C@@H](NC)C(C)C)C(C)C` [MMAE, monomethyl auristatin E] (H-[NMeV]V[Dil][Dolaproine]-X1), which “steady-state concentrations reached after” value [1] is on record?
Answer: 1 treatment cycle

Question: And the “exposure (AUC) in mild, moderate or severe renal impairment compared to normal renal function” value [1]?
Answer: No significant differences

Question: And the elimination half-life [1]?
Answer: 57.6 h

Question: And the “accumulation following repeat administration of enfortumab” value ([1]; in vivo)?
Answer: minimal accumulation

Question: What about the “time until which plasma concentrations increased after enfortumab dosing” value ([1]; in vivo) of the same compound?
Answer: ~2 days

Question: And the “mean clearance (CL)” value [1]?
Answer: 2.7 L/h

Question: And the “AUC increase in patients with mild hepatic impairment compared to normal hepatic function” value ([1]; population PK, n=31)?
Answer: 48%
